Source: PubChem BioAssay (NCI)
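Briefly, cells in 96-well plates were exposed to five compound concentrations for 48 h, and endpoints were estimated by linear interpolation. TGI denotes the concentration required for complete inhibition of growth.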

Columns and labels:
Experiment in all cases: NCI anticancer screen, dose series, 48 h
[1] = system: NCI-H522 lung
[2] = system: SNB-75 CNS
[3] = system: NCI-H23 lung
[4] = system: SF-268 CNS
[5] = system: U251 CNS
[6] = system: SK-OV-3 ovarian
[7] = system: UACC-257 melanoma
[8] = system: SK-MEL-5 melanoma
[9] = system: KM12 colon
[10] = system: ACHN renal
[11] = system: NCI/ADR-RES ovarian
[12] = system: SR leukemia

Measured: TGI

COc1ccc2c(c1)N(C(C)=O)CN1C(=O)CCC21 (configuration not stated)
> 100 µM: [1] | [2] | [3] | [4] | [5] | [6] | [7] | [8] | [9] | [10] | [11]

CO/C(=N\N=C\c1ccc(OC)cc1OC)c1ccncc1
> 10 µM: [2] | [3] | [4] | [5] | [6] | [8] | [12] | [9] | [10] | [11]

CC1=CC2(O)OC3(CC2=C(C)C)C(C)CCC13 (configuration not stated)
> 100 µM: [1] | [2] | [3] | [4] | [5] | [6] | [7] | [8] | [9] | [10] | [11]

COc1ccc(C2CCC(Cl)(OC)CC2C=O)cc1 (configuration not stated)
> 100 µM: [1] | [2] | [3] | [5] | [6] | [7] | [8] | [12] | [9] | [10]
97.3 µM: [4]

Cc1nccc2c1cnc1ccnn12
> 100 µM: [1] | [2] | [3] | [4] | [5] | [6] | [7] | [8] | [12] | [9] | [10]

Cc1[nH]n(-c2nc3c(c(=O)[nH]2)CCC3)c(=O)c1CCO
46.5 µM: [2]
> 100 µM: [1] | [3] | [4] | [5] | [6] | [7] | [8] | [9] | [10] | [11]

CCOC(=O)C1=C(O)c2ccccc2C(=O)C1=O
> 100 µM: [1] | [2] | [3] | [4] | [5] | [6] | [7] | [8] | [12] | [9] | [10]

CC(=O)c1c(O)ccc2c1CC(CC=O)O2 (configuration not stated)
> 100 µM: [1] | [2] | [3] | [4] | [5] | [6] | [7] | [8] | [12] | [9] | [10]

Cn1cnc2c(OCC3CCCCC3)nc(N)nc21
> 100 µM: [1] | [2] | [3] | [4] | [5] | [6] | [7] | [8] | [9] | [10] | [11]

CCCCSC1=N/C(=C\c2ccco2)C(=O)N1
> 100 µM: [1] | [2] | [3] | [4] | [5] | [6] | [7] | [8] | [9] | [10] | [11]

Cn1c(=O)c2c(nc(C[N+]3([O-])CCOCC3)n2C)n(C)c1=O
> 100 µM: [1] | [2] | [3] | [4] | [5] | [6] | [7] | [8] | [12] | [9] | [10]

C[C@@H]1C[C@@H](O)[C@@]2(O)C13CC(=O)OC(C3)[C@@H](C)[C@@]2(C)CO (some centres not stated)
> 100 µM: [1] | [3] | [4] | [5] | [6] | [7] | [8] | [12] | [9] | [10] | [11]

C=CCNC(=O)/C(Cc1cc(Br)c(OC)c(Br)c1O)=N\O
19.8 µM: [9]
27.1 µM: [7]
11.6 µM: [8]
18.1 µM: [3]
11.4 µM: [11]
39.8 µM: [5]
15.7 µM: [4]
6.07 µM: [1]
> 100 µM: [12] | [10]

O=C(O)c1cc(-c2ccccc2O)nc2ccccc12
> 100 µM: [1] | [2] | [3] | [4] | [5] | [6] | [7] | [8] | [9] | [10]

CN(C)c1ccc(/C=C2\N=C(N/N=C/c3ccccc3)NC2=O)cc1
> 100 µM: [1] | [2] | [3] | [4] | [5] | [6] | [7] | [8] | [9] | [10] | [11]

O=C1SC(c2ccc(Cl)cc2)(c2ccc(Cl)cc2)c2ccccc21
> 100 µM: [1] | [2] | [3] | [4] | [5] | [6] | [7] | [8] | [9] | [10] | [11]

CCOc1ccc(N/C(=C(/C(Cl)=C(/Cl)NCCO)[N+](=O)[O-])n2nnc3ccccc32)cc1
41 µM: [4]
48.4 µM: [10]
58.7 µM: [5]
> 100 µM: [2] | [6] | [7] | [9]
64 µM: [11]
33 µM: [3]

CCOC(=O)c1nc2ccc(Cl)cc2c2c1CCO2
> 100 µM: [1] | [3] | [4] | [5] | [6] | [7] | [8] | [9] | [10]
88.6 µM: [2]

COc1ccc(/C=C2\N=C(c3ccccc3)N(Nc3nnc(NN4C(=O)/C(=C/c5ccc(OC)cc5)N=C4c4ccccc4)c4ccccc34)C2=O)cc1
90.5 µM: [12]
> 100 µM: [1] | [2] | [3] | [4] | [5] | [7] | [8] | [10]
54.3 µM: [9]

NC(=O)C12C3C4C1C1C2C3C41C(N)=O (configuration not stated)
> 100 µM: [1] | [2] | [3] | [4] | [5] | [6] | [7] | [8] | [9] | [10]
